Here are results for 25 compounds from ChEMBL document CHEMBL1141969, “2-Cyano-4-fluoro-1-thiovalylpyrrolidine analogues as potent inhibitors of DPP-IV” (Bioorg Med Chem Lett, 2005).

Usually Ki stands for a measure of affinity in units of concentration, obtained from inhibition or displacement. As usually defined, the bioavailability is dose-corrected exposure relative to a reference, in per cent. Low values mean little systemic uptake, high ones much systemic uptake. For orientation: half-life means how long it takes for the measured level to halve. The low end stands for rapid decline, the high end for slow decline. Broadly, the IC50 is the midpoint of a concentration-inhibition curve.

The structures appear in SMILES notation. A value given as a limit tells only on which side of the number the result lay.

The target of one data set is T1, Prolyl endopeptidase FAP (Homo sapiens, UniProt Q12884).
T1 sequence (Q12884 whole entry): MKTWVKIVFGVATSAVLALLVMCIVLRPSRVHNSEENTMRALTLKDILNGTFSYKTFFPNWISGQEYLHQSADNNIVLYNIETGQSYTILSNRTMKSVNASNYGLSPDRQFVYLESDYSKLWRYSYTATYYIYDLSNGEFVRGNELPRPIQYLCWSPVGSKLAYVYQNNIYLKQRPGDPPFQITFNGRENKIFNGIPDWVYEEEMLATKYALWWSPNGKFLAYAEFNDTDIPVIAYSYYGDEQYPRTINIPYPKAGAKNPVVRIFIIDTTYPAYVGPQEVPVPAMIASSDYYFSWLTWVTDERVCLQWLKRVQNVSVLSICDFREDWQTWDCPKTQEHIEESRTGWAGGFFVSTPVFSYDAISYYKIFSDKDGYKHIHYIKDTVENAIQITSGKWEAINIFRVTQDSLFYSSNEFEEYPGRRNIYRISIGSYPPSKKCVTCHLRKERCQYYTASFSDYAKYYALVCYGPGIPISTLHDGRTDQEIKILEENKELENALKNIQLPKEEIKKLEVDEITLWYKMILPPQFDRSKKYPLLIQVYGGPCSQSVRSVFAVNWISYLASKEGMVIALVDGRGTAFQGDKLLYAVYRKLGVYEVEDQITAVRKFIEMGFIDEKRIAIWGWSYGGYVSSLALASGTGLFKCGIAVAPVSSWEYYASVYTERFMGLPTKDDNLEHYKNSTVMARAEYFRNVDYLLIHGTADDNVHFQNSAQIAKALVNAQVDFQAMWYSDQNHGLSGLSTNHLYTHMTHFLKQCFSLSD
The experiment in a line: Inhibitory activity against recombinant seprase.

The target of another data set is Dipeptidyl peptidase 2 (Homo sapiens, UniProt Q9UHL4). Kind of data set: Inhibitory activity against recombinant DPP2.
The test system of a further data set is Canis familiaris. The experiment in a line: Gastro-Intestinal toxicity in dog at 10 mg/kg, po. The class given is organism-based, Canis lupus familiaris. Also on record: dose 10 mg/kg, route oral. The following applies: in vivo.
Data set [1] can be described thus: Oral bioavailability in rat, po. Type of data set: ADME, organism-based. The following applies: in vivo.
A short description of data set [2]: Half life cyclization at 37 C, pH 7.2. Type of data set: ADME.
Data set [3] in a line: Oral bioavailability in dog. The following applies: in vivo. The class given is ADME, organism-based, Canis lupus familiaris.
The nature of data set [4]: Oral bioavailability in rat. The class given is ADME, organism-based. The following applies: in vivo.
Data set [5] is described as follows: Half life in rat. Type of data set: ADME, organism-based. The following applies: in vivo.
Data set [6] can be described thus: Half life in dog. Type of data set: ADME, organism-based, Canis lupus familiaris. The following applies: in vivo.
The species named for another data set is Homo sapiens. Kind of data set: Inhibition of cytochrome P450.

On to `CC(C)(SCCc1ccccc1)[C@H](N)C(=O)N1C[C@@H](F)C[C@H]1C#N`, for which the Ki on Prolyl endopeptidase FAP is above 23.4 µM. `COc1cccc(CS(=O)(=O)C(C)(C)[C@H](N)C(=O)N2C[C@@H](F)C[C@H]2C#N)c1`: the Ki on Dipeptidyl peptidase 2 was above 22.4 µM. Take `CC(C)([C@H](N)C(=O)N1C[C@@H](F)C[C@H]1C#N)S(=O)(=O)Cc1csc2ccc(Cl)cc12`: the Ki at Dipeptidyl peptidase 2 is above 22.4 µM. In the case of `CC(C)([C@H](N)C(=O)N1C[C@@H](F)C[C@H]1C#N)S(=O)(=O)Cc1ccc(-c2ccccc2)cc1`, the Ki on Dipeptidyl peptidase 2 was above 22.4 µM. `CC(C)([C@H](N)C(=O)N1C[C@@H](F)C[C@H]1C#N)S(=O)(=O)Cc1ccncc1`: the values for the Ki at Dipeptidyl peptidase 2 and on Prolyl endopeptidase FAP were above 22.4 µM and above 23.4 µM, respectively.

With `CC(C)([C@H](N)C(=O)N1C[C@@H](F)C[C@H]1C#N)S(=O)(=O)CCCc1ccccc1`, the inhibitory constant (Ki) was above 22.4 µM at Dipeptidyl peptidase 2 and above 23.4 µM at Prolyl endopeptidase FAP. In the case of `CC(C)(SCc1cccnc1)[C@H](N)C(=O)N1C[C@@H](F)C[C@H]1C#N`, the Ki on Dipeptidyl peptidase 2 was above 22.4 µM; at Prolyl endopeptidase FAP, above 23.4 µM. Regarding `COc1ccc(C[S+]([O-])C(C)(C)[C@H](N)C(=O)N2C[C@@H](F)C[C@H]2C#N)cc1` (stereo partly drawn), the Ki on Dipeptidyl peptidase 2 is above 22.4 µM; at Prolyl endopeptidase FAP, above 23.4 µM. For `CC(C)([C@H](N)C(=O)N1C[C@@H](F)C[C@H]1C#N)S(=O)(=O)Cc1ccccc1` the same measures were above 22.4 µM and above 23.4 µM.

Consider `CC(C)([C@H](N)C(=O)N1C[C@@H](F)C[C@H]1C#N)S(=O)(=O)O`, for which the Ki on Dipeptidyl peptidase 2 is above 22.4 µM. Same read-out and setting: with `CC(C)(SCc1ccncc1)[C@H](N)C(=O)N1C[C@@H](F)C[C@H]1C#N` the figure was above 22.4 µM; with `CC(=O)Nc1ccc(CS(=O)(=O)C(C)(C)[C@H](N)C(=O)N2C[C@@H](F)C[C@H]2C#N)cc1`, above 22.4 µM. As for `CC(C)([C@H](N)C(=O)N1C[C@@H](F)C[C@H]1C#N)S(=O)(=O)Cc1ccc(F)cc1`, the Ki at Dipeptidyl peptidase 2 was above 22.4 µM; at Prolyl endopeptidase FAP, above 23.4 µM.

`CC(C)([C@H](N)C(=O)N1C[C@@H](F)C[C@H]1C#N)S(=O)(=O)Cc1ccc(C#N)cc1`: the Ki at Dipeptidyl peptidase 2 is above 22.4 µM. Moreover, the Activity result with Canis familiaris is listed as “Toxic”.

Turning to `CC(C)([C@H](N)C(=O)N1C[C@@H](F)C[C@H]1C#N)S(=O)(=O)Cc1cccc(Oc2ccccc2)c1`, the inhibition constant (Ki) on Dipeptidyl peptidase 2 was above 22.4 µM. Consider `Cc1ccc(CS(=O)(=O)C(C)(C)[C@H](N)C(=O)N2C[C@@H](F)C[C@H]2C#N)cc1`, for which the Ki at Dipeptidyl peptidase 2 was above 22.4 µM; at Prolyl endopeptidase FAP, above 23.4 µM. `COc1ccccc1CS(=O)(=O)C(C)(C)[C@H](N)C(=O)N1C[C@@H](F)C[C@H]1C#N`: the Ki at Dipeptidyl peptidase 2 was above 22.4 µM. Turning to `CC(C)([C@H](N)C(=O)N1C[C@@H](F)C[C@H]1C#N)S(=O)(=O)Cc1ccc(S(C)(=O)=O)cc1`, the bioavailability in [1] is below 5%. The inhibition constant (Ki) at Prolyl endopeptidase FAP was above 23.4 µM. For `COc1ccc(CS(=O)(=O)C(C)(C)[C@H](N)C(=O)N2CCC[C@H]2C#N)cc1`, the half-life in data set [2] was 360 h; in data set [5] it was 4.2 h; in [6], 3 h. Also, the bioavailability in data set [3] worked out at 100%; in data set [4], 4%. Moreover, the IC50 in the data set listed under Homo sapiens is above 15 µM. On to `CC(C)(SCc1ccccn1)[C@H](N)C(=O)N1C[C@@H](F)C[C@H]1C#N`, for which the Ki on Dipeptidyl peptidase 2 is above 22.4 µM.

For the compound `COc1ccc(CS(=O)(=O)C(C)(C)[C@H](N)C(=O)N2C[C@@H](F)C[C@H]2C#N)cc1`, the inhibition constant Ki was above 22.4 µM on Dipeptidyl peptidase 2 and above 23.4 µM on Prolyl endopeptidase FAP. In addition, the half-life in [5] was 2.3 h; in data set [6], 3.9 h. In addition, the IC50 in the data set listed under Homo sapiens is above 15 µM. Turning to `CC(C)([C@H](N)C(=O)N1C[C@@H](F)C[C@H]1C#N)S(=O)(=O)Cc1ccc(OCc2ccccc2)cc1`, the Ki at Dipeptidyl peptidase 2 was above 22.4 µM. Take `CC(C)(SCc1ccc(C(F)(F)F)cc1)[C@H](N)C(=O)N1C[C@@H](F)C[C@H]1C#N`: on Prolyl endopeptidase FAP, the Ki was above 23.4 µM. Regarding `CC(=O)NCSC(C)(C)[C@H](N)C(=O)N1C[C@@H](F)C[C@H]1C#N`, the inhibitory constant (Ki) at Dipeptidyl peptidase 2 was above 22.4 µM. `COc1ccc(CSC(C)(C)[C@H](N)C(=O)N2C[C@@H](F)C[C@H]2C#N)cc1`: the Ki on Prolyl endopeptidase FAP was above 23.4 µM.
